Experimental data: patent US10448639B2, “Fungicidal pyrazoles” (FMC CORPORATION, priority 2009, dated 2019)
Marks after values point to notes of the source that are not given here.

How the values were obtained:
[1] = tested on: Puccinia recondita f. sp. tritici; experiment: Test H: wheat leaf rust, curative spray on inoculated wheat seedlings, visual disease rating; settings: wheat leaf rust, curative; for Test H rating (% disease control): 100 = 100% disease control, 0 = no control relative to controls
[2] = tested on: Septoria nodorum; experiment: Test F: Septoria glume blotch, preventive spray on wheat seedlings, visual disease rating; settings: Septoria glume blotch; for Test F rating (% disease control): 100 = 100% disease control, 0 = no control relative to controls
[3] = tested on: Alternaria solani; experiment: Test C: tomato early blight, preventive spray on tomato seedlings, visual disease rating; settings: tomato early blight; for Test C rating (% disease control): 100 = 100% disease control, 0 = no control relative to controls
[4] = tested on: Erysiphe graminis f sp. tritici; experiment: Test J: wheat powdery mildew, preventive spray on wheat seedlings, visual disease rating; settings: wheat powdery mildew; for Test J rating (% disease control): 100 = 100% disease control, 0 = no control relative to controls
[5] = tested on: Puccinia recondita f. sp. tritici; experiment: Test I: wheat leaf rust, preventive spray on wheat seedlings, visual disease rating; settings: wheat leaf rust, preventive; for Test I rating (% disease control): 100 = 100% disease control, 0 = no control relative to controls
[6] = tested on: Septoria tritici; experiment: Test G: wheat leaf blotch, preventive spray on wheat seedlings, visual disease rating; settings: wheat leaf blotch; for Test G rating (% disease control): 100 = 100% disease control, 0 = no control relative to controls
[7] = tested on: Botrytis cinerea; experiment: Test B: tomato Botrytis, preventive spray on tomato seedlings, visual disease rating; settings: tomato Botrytis; for Test B rating (% disease control): 100 = 100% disease control, 0 = no control relative to controls
[8] = rating marked with asterisk (*), meaning not given

| Structure (SMILES) | Test H rating (% disease control) [1] | Test F rating (% disease control) [2] | Test C rating (% disease control) [3] | Test J rating (% disease control) [4] | Test I rating (% disease control) [5] | Test G rating (% disease control) [6] | Test B rating (% disease control) [7] | Test H rating (% disease control), marked * [1, 8] | Test F rating (% disease control), marked * [2, 8] | Test C rating (% disease control), marked * [3, 8] | Test J rating (% disease control), marked * [4, 8] | Test I rating (% disease control), marked * [5, 8] | Test G rating (% disease control), marked * [6, 8] | Test B rating (% disease control), marked * [7, 8] |
| --- | --- | --- | --- | --- | --- | --- | --- | --- | --- | --- | --- | --- | --- | --- |
| Cc1nn(C)c(Nc2ccc(C#N)cc2F)c1-c1c(F)cccc1F [compound 196] | 9% | 73% | 94% | 98% | 98% | 100% | 99% |  |  |  |  |  |  |  |
| Cc1nn(C)c(Nc2cc(F)ccc2F)c1-c1c(F)cccc1F [compound 197] | 0% | 95% | 0% | 96% | 79% | 99% | 97% |  |  |  |  |  |  |  |
| Cc1nn(C)c(Nc2cccc(F)c2F)c1-c1c(F)cccc1F [compound 198] | 0% | 0% | 68% | 97% | 94% | 100% | 97% |  |  |  |  |  |  |  |
| COc1cc(F)ccc1Nc1c(-c2c(F)cccc2F)c(C)nn1C [compound 199] | 0% | 0% | 86% | 98% | 68% | 99% | 99% |  |  |  |  |  |  |  |
| COc1cccc(Nc2c(-c3c(F)cccc3F)c(C)nn2C)c1 [compound 200] | 0% | 0% | 0% | 94% | 0% | 97% | 82% |  |  |  |  |  |  |  |
| COc1ccc(Nc2c(-c3c(F)cccc3F)c(C)nn2C)c(Cl)c1 [compound 201] | 18% | 20% | 97% | 99% | 97% | 100% | 99% |  |  |  |  |  |  |  |
| Cc1nn(C)c(Nc2ccc(F)cc2F)c1-c1cccc(F)c1F [compound 202] | 0% | 0% | 0% | 99% | 28% | 99% | 99% |  |  |  |  |  |  |  |
| Cc1nn(C)c(Nc2c(F)cc(F)cc2F)c1-c1cccc(F)c1F [compound 203] | 0% | 0% | 0% | 100% | 96% | 98% | 99% |  |  |  |  |  |  |  |
| COc1cc(F)c(Nc2c(-c3cccc(F)c3F)c(C)nn2C)c(F)c1 [compound 204] |  |  |  |  |  |  |  | 0* % | 0* % | 77* % | 99* % | 86* % | 99* % | 100* % |
| Cc1nn(C)c(Nc2ccc(F)cc2)c1-c1cccc(F)c1F [compound 205] | 0% | 0% | 17% | 100% | 91% | 99% | 100% |  |  |  |  |  |  |  |
| COc1cc(F)c(-c2c(C)nn(C)c2Oc2ccc(Cl)cc2)c(F)c1 [compound 206] | 41% | 84% | 99% | 100% | 99% | 99% | 99% |  |  |  |  |  |  |  |
| Cc1nn(C)c(Nc2ccc(F)cc2Cl)c1-c1ccc(F)cc1F [compound 207] | 0% | 64% | 93% | 100% | 99% | 100% | 100% |  |  |  |  |  |  |  |
| COc1cc(F)c(-c2c(C)nn(C)c2C(O)c2ccc(F)cc2F)c(F)c1 (stereo not shown) [compound 208] | 0% | 99% | 100% | 99% | 99% | 100% | 100% |  |  |  |  |  |  |  |
| Cc1ccc(Oc2c(-c3c(F)cc(F)cc3F)c(C)nn2C)cc1C [compound 209] | 0% | 0% | 0% | 97% | 0% | 0% | 0% |  |  |  |  |  |  |  |
| COc1cc(F)c(-c2c(C)nn(C)c2Oc2ccc(C)c(C)c2)c(F)c1 [compound 210] | 99% | 0% | 0% | 99% | 94% | 100% | 0% |  |  |  |  |  |  |  |
| COc1cc(F)c(-c2c(C)nn(C)c2Oc2ccc(Cl)c(OC)c2)c(F)c1 [compound 211] | 0% | 0% | 0% | 96% | 17% | 99% | 77% |  |  |  |  |  |  |  |
| COc1cccc(Oc2c(-c3c(F)cc(F)cc3F)c(C)nn2C)c1 [compound 213] | 94% | 0% | 30% | 100% | 96% | 85% | 97% |  |  |  |  |  |  |  |
| Cc1nn(C)c(Nc2cccc(F)c2F)c1-c1ccc(F)cc1F [compound 214] | 9% | 0% | 51% | 100% | 99% | 100% | 98% |  |  |  |  |  |  |  |
| COc1ccc(Cl)c(Nc2c(-c3c(F)cccc3F)c(C)nn2C)c1 [compound 215] | 0% | 0% | 0% | 99% | 94% | 98% | 89% |  |  |  |  |  |  |  |
